Assay results reported in patent US9925170B2, “Methods of adipolysis and compositions useful therein” (priority 2015, dated 2018).

Legend:
[1] = system: subcutaneous adipose tissue; experiment: Daily topical or intraperitoneal administration in mice, histopathology of mid-scapular skin; assay type: in vivo, Female BALB/cAnNCrl mice
Experimental: Female BALB/cAnNCrl mice were divided into five groups of three mice/group and seven groups of eight mice/group. Mice in Group 1 were age-matched, untreated pre-study reference animals, and mice in Group 2 were age-matched, untreated Day 29 reference animals. […] Mid-scapular skin was collected from each animal and histopathological examination was performed to determine the effects of the test articles on subcutaneous adipose deposition and skin thickness.

[2] = system: Human mature adipocytes
Experimental: Human pre-adipocytes (Lonza, Allendale, N.J.) were differentiated into mature adipocytes according to the supplier's instructions. Mature adipocytes in maintenance medium (Zen-Bio, Research Triangle Park, N.C.) were treated with different statins (Sigma, St. Louis, Mo.) for 7 days over a range of concentrations. Cell viability was measured at Day 1, 3, 5, and 7 using the ALAMARBLUE® assay (Invitrogen, Carlsbad, Calif.).

[3] = system: subcutaneous fat layer; details: 25 mg/kg intraperitoneal, 28 consecutive days (FIG. 6)
Experimental: Three untreated mice were used as reference animals. On Day 29, all animals were sacrificed and histopathological examination of the dorsal lumbar skin was performed. […] The severity of subcutaneous fat atrophy was scored on a scale ranging from normal (score of “0”) to severe (score of “4”).

[4] = intraperitoneal 25 mg/kg, 28 days

Compound | atrophy of subcutaneous adipose tissue [1, 4] | atrophy of subcutaneous adipose tissue ([1]; topical 0.5%, 7 days) | atrophy of subcutaneous adipose tissue ([1]; topical 2.5%, 7 days) | atrophy of subcutaneous adipose tissue ([1]; topical 2.5%, 28 days) | dose dependence of cytotoxic effect [2] | atrophy of subcutaneous adipose tissue ([1]; topical 0.5%, 28 days) | fat layer atrophy in skin sections [3]
Cc1ccc(N(CC2=NCCN2)c2cccc(O)c2)cc1 [phentolamine] | present in skin of all mice | present in mice | present in mice | in one mouse | – | – | –
CC(C)n1c(/C=C/C(O)CC(O)CC(=O)O)c(-c2ccc(F)cc2)c2ccccc21 (stereo not drawn) [fluvastatin] | – | – | – | – | dose-dependent cytotoxic effect | – | –
CC(=O)[C@H]1CC[C@H]2[C@@H]3CC=C4C[C@@H](O)CC[C@]4(C)[C@H]3CC[C@]12C [pregnenolone] | present in skin of all mice | – | – | – | – | present in a one mouse | –
CC[C@H](C)C(=O)O[C@H]1C[C@@H](C)C=C2C=C[C@H](C)[C@H](CC[C@@H]3C[C@@H](O)CC(=O)O3)[C@H]21 [lovastatin] | present in skin of all mice | – | present in all mice | present in all mice | – | Only one mouse | significant fat layer atrophy
